Activity calls are given as the source filed them. The rule behind the calls is not given here.
Test system: CCRIS mutagenicity, Ames/micronucleus/aberration tests
Test: CCRIS mutagenicity studies
[1] = Test System: AMES SALMONELLA TYPHIMURIUM, Strain/Indicator: TA100, Metabolic Activation: NONE, Method: STANDARD PLATE

Measured: mutagenic call

CC(C)COS(C)(=O)=O
inactive: End Point: IN VITRO MICRONUCLEUS, Test System: MOUSE LYMPHOMA L5178Y CELLS, Metabolic Activation: NONE inactive; negative; significant increase at highly/excessively cytotoxic doses | End Point: IN VITRO MICRONUCLEUS, Test System: MOUSE LYMPHOMA L5178Y CELLS, Metabolic Activation: RAT, LIVER, S-9 inactive; negative
active: [1] active; positive | Test System: AMES SALMONELLA TYPHIMURIUM, Strain/Indicator: TA100, Metabolic Activation: RAT, LIVER, S-9, Method: STANDARD PLATE active; positive

CC(C)=CCC/C(C)=C/CO
inactive: Test System: AMES SALMONELLA TYPHIMURIUM, Strain/Indicator: TA98, Metabolic Activation: NONE, Method: STANDARD PLATE inactive; negative | Test System: AMES SALMONELLA TYPHIMURIUM, Strain/Indicator: TA98, Metabolic Activation: S-9, Method: STANDARD PLATE inactive; negative | [1] inactive; negative | Test System: AMES SALMONELLA TYPHIMURIUM, Strain/Indicator: TA100, Metabolic Activation: S-9, Method: STANDARD PLATE inactive; negative

C=CCBr
active: End Point: IN VITRO CHROMOSOMAL ABERRATIONS, Test System: CHL CELLS, Metabolic Activation: NONE active; positive (structural changes) | Test System: Ames Salmonella typhimurium, Strain/Indicator: TA100, Metabolic Activation: Hamster, Liver, S-9, Aroclor 1254 (30%), Method: Standard plate active; positive (weak response) | Test System: Ames Salmonella typhimurium, Strain/Indicator: TA100, Metabolic Activation: None, Method: Standard plate active; positive | Test System: Ames Salmonella typhimurium, Strain/Indicator: TA100, Metabolic Activation: Rat, Liver, S-9, Aroclor 1254 (30%), Method: Standard plate active; positive
inactive: End Point: IN VITRO CHROMOSOMAL ABERRATIONS, Test System: CHL CELLS, Metabolic Activation: RAT, LIVER, S-9, SODIUM PHENOBARBITAL AND 5,6-BENZOFLAVONE inactive; negative; authors report equivocal results for structural changes at 0.06 mg/ml | End Point: In vivo micronucleus, Species: Mouse, Strain/Sex: C57BL/6/Male, Route: Oral inactive; negative | End Point: In vivo micronucleus, Test System: Peripheral blood normochromatic erythrocytes, Species: Mouse, Strain/Sex: C57BL/6/Female, Route: Oral inactive; negative | End Point: In vivo micronucleus, Test System: Peripheral blood normochromatic erythrocytes, Species: Mouse, Strain/Sex: FVB/N/Female, Route: Oral inactive; negative | End Point: In vivo micronucleus, Test System: Peripheral blood normochromatic erythrocytes, Species: Mouse, Strain/Sex: FVB/N/Male, Route: Oral inactive; negative | End Point: In vivo micronucleus, Test System: Peripheral blood normochromatic erythrocytes, Species: Mouse, Strain/Sex: P53 Haploinsufficient/Female, Route: Oral inactive; negative | End Point: In vivo micronucleus, Test System: Peripheral blood normochromatic erythrocytes, Species: Mouse, Strain/Sex: P53 Haploinsufficient/Male, Route: Oral inactive; negative | End Point: In vivo micronucleus, Test System: Peripheral blood normochromatic erythrocytes, Species: Mouse, Strain/Sex: Tg.AC Hemizygous/Female, Route: Oral inactive; negative | End Point: In vivo micronucleus, Test System: Peripheral blood normochromatic erythrocytes, Species: Mouse, Strain/Sex: Tg.AC Hemizygous/Male, Route: Oral inactive; negative | Test System: Ames Salmonella typhimurium, Strain/Indicator: TA98, Metabolic Activation: Hamster, Liver, S-9, Aroclor 1254 (30%), Method: Standard plate inactive; negative | Test System: Ames Salmonella typhimurium, Strain/Indicator: TA98, Metabolic Activation: None, Method: Standard plate inactive; negative | Test System: Ames Salmonella typhimurium, Strain/Indicator: TA98, Metabolic Activation: Rat, Liver, S-9, Aroclor 1254 (30%), Method: Standard plate inactive; negative

c1ccc2c(c1)ccc1c2ccc2ccc3ccccc3c21
inactive: Test System: AMES SALMONELLA TYPHIMURIUM, Strain/Indicator: TA100, Metabolic Activation: RAT, LIVER, MICROSOMES, BENZO[C]CHRYSENE, Method: STANDARD PLATE inactive; negative | Test System: AMES SALMONELLA TYPHIMURIUM, Strain/Indicator: TA100, Metabolic Activation: RAT, LIVER, MICROSOMES, Method: STANDARD PLATE inactive; negative
active: Test System: AMES SALMONELLA TYPHIMURIUM, Strain/Indicator: TA100, Metabolic Activation: RAT, LIVER, MICROSOMES, AROCLOR 1254, Method: STANDARD PLATE active; positive

O=[N+]([O-])c1cccc2c1oc1ccccc12
inactive: Test System: AMES SALMONELLA TYPHIMURIUM, Strain/Indicator: TA100, Metabolic Activation: NONE, Method: PREINCUBATION inactive; negative
active: Test System: AMES SALMONELLA TYPHIMURIUM, Strain/Indicator: TA98(1,8-DNP6), Metabolic Activation: NONE, Method: PREINCUBATION active; positive | Test System: AMES SALMONELLA TYPHIMURIUM, Strain/Indicator: TA98(1,8-DNP6), Metabolic Activation: NONE, Method: SUSPENSION active; positive | Test System: AMES SALMONELLA TYPHIMURIUM, Strain/Indicator: TA98(1,8-DNP6), Metabolic Activation: RAT, LIVER, S-9, PCB (5%), Method: PREINCUBATION active; positive | Test System: AMES SALMONELLA TYPHIMURIUM, Strain/Indicator: TA98(NR), Metabolic Activation: NONE, Method: PREINCUBATION active; positive | Test System: AMES SALMONELLA TYPHIMURIUM, Strain/Indicator: TA98(NR), Metabolic Activation: NONE, Method: SUSPENSION active; positive | Test System: AMES SALMONELLA TYPHIMURIUM, Strain/Indicator: TA98(NR), Metabolic Activation: RAT, LIVER, S-9 (10%), Method: PREINCUBATION active; positive | Test System: AMES SALMONELLA TYPHIMURIUM, Strain/Indicator: TA98(NR), Metabolic Activation: RAT, LIVER, S-9, 3-METHYLCHOLANTHRENE (10%), Method: PREINCUBATION active; positive | Test System: AMES SALMONELLA TYPHIMURIUM, Strain/Indicator: TA98(NR), Metabolic Activation: RAT, LIVER, S-9, BETA-NAPHTHOFLAVONE (10%), Method: PREINCUBATION active; positive | Test System: AMES SALMONELLA TYPHIMURIUM, Strain/Indicator: TA98(NR), Metabolic Activation: RAT, LIVER, S-9, PCB (5%), Method: PREINCUBATION active; positive | Test System: AMES SALMONELLA TYPHIMURIUM, Strain/Indicator: TA98(NR), Metabolic Activation: RAT, LIVER, S-9, PCB (10%), Method: PREINCUBATION active; positive | Test System: AMES SALMONELLA TYPHIMURIUM, Strain/Indicator: TA98(NR), Metabolic Activation: RAT, LIVER, S-9, PHENOBARBITAL (10%), Method: PREINCUBATION active; positive | Test System: AMES SALMONELLA TYPHIMURIUM, Strain/Indicator: TA98, Metabolic Activation: NONE, Method: PREINCUBATION active; positive | Test System: AMES SALMONELLA TYPHIMURIUM, Strain/Indicator: TA98, Metabolic Activation: NONE, Method: SUSPENSION active; positive | Test System: AMES SALMONELLA TYPHIMURIUM, Strain/Indicator: TA98, Metabolic Activation: RAT, LIVER, S-9, PCB (5%), Method: PREINCUBATION active; positive | Test System: AMES SALMONELLA TYPHIMURIUM, Strain/Indicator: TA98, Metabolic Activation: RAT, LIVER, S-9, PCB, Method: SUSPENSION active; positive | Test System: AMES SALMONELLA TYPHIMURIUM, Strain/Indicator: TA100, Metabolic Activation: NONE, Method: SUSPENSION active; positive | Test System: AMES SALMONELLA TYPHIMURIUM, Strain/Indicator: TA100, Metabolic Activation: RAT, LIVER, S-9, PCB (5%), Method: PREINCUBATION active; positive | Test System: AMES SALMONELLA TYPHIMURIUM, Strain/Indicator: TA100, Metabolic Activation: RAT, LIVER, S-9, PCB, Method: SUSPENSION active; positive

— PubChem BioAssay AID1259407 (Chemical Carcinogenesis Research Information System (CCRIS), 2018)
